Source: ChEMBL document CHEMBL1201862, “PubChem BioAssay data set” (2004)
The source made the active and inactive calls.

Key:
[1] = NIH-3T3 fibroblast cytotoxicity, dose response, cytotoxicity control, cell-based, fluorescence, Alamar Blue, secondary assay (AID 2327); format: functional;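 note: NIH-3T3 mouse fibroblasts cultured with fluconazole at 8 µg/mL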
[2] = target: T1, Serine/threonine-protein phosphatase (Candida dubliniensis (strain CD36 / CBS 7987 / NCPF 3949 / NRRLY-17841) (Yeast), UniProt B9W6M3); assay: calcineurin pathway inhibitors in yeast reporter, dose response, S. cerevisiae, CDRE-lacZ, luminescence, secondary (AID 2388); format: functional, cell-based;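 note: yeast reporter cells carrying a calcineurin-responsive lacZ construct stimulated with calcium chloride; luminescent beta-galactosidase reporter signal in whole cells rather than isolated phosphatase activity; potency for inhibition where a drop in reporter signal means calcineurin blockade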
T1 sequence (B9W6M3 whole entry): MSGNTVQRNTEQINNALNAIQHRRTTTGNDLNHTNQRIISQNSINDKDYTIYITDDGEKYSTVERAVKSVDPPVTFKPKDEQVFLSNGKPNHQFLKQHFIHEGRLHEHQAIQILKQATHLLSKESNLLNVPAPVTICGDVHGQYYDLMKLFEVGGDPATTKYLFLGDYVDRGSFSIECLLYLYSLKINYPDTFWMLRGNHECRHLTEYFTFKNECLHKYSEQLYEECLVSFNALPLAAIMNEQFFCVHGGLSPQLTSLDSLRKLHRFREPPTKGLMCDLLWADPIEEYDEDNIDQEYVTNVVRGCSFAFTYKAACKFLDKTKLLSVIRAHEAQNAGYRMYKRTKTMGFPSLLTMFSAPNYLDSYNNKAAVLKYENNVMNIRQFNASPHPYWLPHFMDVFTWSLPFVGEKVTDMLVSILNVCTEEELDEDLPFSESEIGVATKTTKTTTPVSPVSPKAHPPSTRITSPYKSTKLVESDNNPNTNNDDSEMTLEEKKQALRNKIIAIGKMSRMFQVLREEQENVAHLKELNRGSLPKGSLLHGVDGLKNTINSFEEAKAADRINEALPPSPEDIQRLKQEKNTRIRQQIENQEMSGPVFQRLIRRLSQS

[3] = THP-1 cell cytotoxicity, dose response, cytotoxicity control for non-replicating M. tuberculosis project (AID 489025); format: functional
[4] = target: T2, Short transient receptor potential channel 4 (Mus musculus, UniProt Q9QUQ5); assay: mouse TRPC4 channel activators, dose response, cell-based, HEK293 TRPC4/mu-opioid, Fluo-4 calcium (AID 434937); format: functional
T2 sequence (Q9QUQ5 whole entry): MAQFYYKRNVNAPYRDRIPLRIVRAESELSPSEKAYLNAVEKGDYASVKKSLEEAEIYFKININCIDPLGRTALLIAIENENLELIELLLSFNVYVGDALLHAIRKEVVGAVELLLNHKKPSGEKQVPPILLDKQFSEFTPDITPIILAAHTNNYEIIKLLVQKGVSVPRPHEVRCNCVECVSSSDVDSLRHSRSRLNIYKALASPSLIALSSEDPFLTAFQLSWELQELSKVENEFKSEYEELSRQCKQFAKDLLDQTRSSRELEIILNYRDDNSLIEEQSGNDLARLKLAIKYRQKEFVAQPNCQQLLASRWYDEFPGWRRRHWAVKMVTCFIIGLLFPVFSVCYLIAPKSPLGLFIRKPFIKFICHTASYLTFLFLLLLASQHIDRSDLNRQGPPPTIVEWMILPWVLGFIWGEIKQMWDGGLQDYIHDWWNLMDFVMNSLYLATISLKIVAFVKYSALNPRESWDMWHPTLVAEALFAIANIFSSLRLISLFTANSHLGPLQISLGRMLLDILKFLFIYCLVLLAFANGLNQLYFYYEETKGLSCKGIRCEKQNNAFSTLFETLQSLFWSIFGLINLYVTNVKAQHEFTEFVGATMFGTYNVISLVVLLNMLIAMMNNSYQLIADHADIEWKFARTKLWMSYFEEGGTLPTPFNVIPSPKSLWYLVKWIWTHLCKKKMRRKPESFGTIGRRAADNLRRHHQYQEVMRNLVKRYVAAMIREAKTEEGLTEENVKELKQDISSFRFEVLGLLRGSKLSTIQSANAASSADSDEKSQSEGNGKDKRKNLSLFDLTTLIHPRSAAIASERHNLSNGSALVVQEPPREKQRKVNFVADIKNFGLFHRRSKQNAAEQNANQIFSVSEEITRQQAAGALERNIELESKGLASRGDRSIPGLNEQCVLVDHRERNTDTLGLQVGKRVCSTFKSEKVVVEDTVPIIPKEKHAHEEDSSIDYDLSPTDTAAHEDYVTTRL

cells = format: functional
[5] = target: ATP-dependent molecular chaperone HSP82 (Candida albicans (strain WO-1) (Yeast), UniProt C4YTQ8); assay: loss of DOC-induced GRE-beta-galactosidase reporter signal, dose response, Hsp90 inhibitor project, S. cerevisiae, luminescence (AID 2400); format: functional, cell-based;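 note: beta-galactosidase luminescence from glucocorticoid response element reporter as proxy for Hsp90 function; inhibitor potency where signal loss means Hsp90 inhibition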
[6] = HepG2 cell cytotoxicity, dose response, cytotoxicity control for non-replicating M. tuberculosis project (AID 489018); format: functional; settings: Mycobacterium tuberculosis
[7] = Vero E6 cell cytotoxicity, dose response, cytotoxicity control for non-replicating M. tuberculosis project, secondary assay (AID 492998); format: functional, VeroE6; settings: Vero C1008
[8] = target: T1, Serine/threonine-protein phosphatase; assay: Fluorescence Cell-Based Secondary Assay to Identify Inhibitors of Calcineurin. [Related pubchem assays (depositor defined):AID1979, AID2007]; format: functional
[9] = C. albicans growth with fluconazole, confirmation, fluorescence, retest (AID 2467); format: functional, cell-based
[10] = target: T3, Kappa-type opioid receptor (Homo sapiens, UniProt P41145); format: functional
[11] = target: T4, Delta-type opioid receptor (Homo sapiens, UniProt P41143); assay: HTS Image-Based Screen for Agonists of the DOR Receptor. [Related pubchem assays (depositor defined):AID1777, AID1786, AID2133]; format: functional
[12] = target: T4, Delta-type opioid receptor; assay: HTS Image-Based Screen for Antagonists of the DOR Receptor. [Related pubchem assays (depositor defined):AID1777, AID1785, AID1786, AID2133]; format: functional
[13] = target: T3, Kappa-type opioid receptor; format: functional; remark: listed apart in the source
Beta-galactosidase = Beta-galactosidase (Escherichia coli, UniProt Q8VNN2); format: functional
Mu-type opioid receptor = Mu-type opioid receptor (Homo sapiens, UniProt P35372); assay: HTS Image-Based Screen for Agonists of the MOR Receptor. [Related pubchem assays (depositor defined):AID1777, AID1785, AID1786, AID2133]; format: functional;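 note: imaging of beta-arrestin GFP recruitment into spots after receptor activation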
Cytochrome P450 2C19 = Cytochrome P450 2C19 (Homo sapiens, UniProt P33261); assay: Cytochrome panel assay with activity outcomes. Panel member name: p450-cyp2c19 Compounds with AC50 equal or less than 10 uM are considered active; format: functional
Cytochrome P450 2D6 = Cytochrome P450 2D6 (Homo sapiens, UniProt P10635);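 note: CYP2D6 member of a cytochrome P450 panel assay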
Cytochrome P450 2C9 = Cytochrome P450 2C9 (Homo sapiens, UniProt P11712)
Cytochrome P450 1A2 = target: T5, Cytochrome P450 1A2 (Homo sapiens, UniProt P05177);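 note: PubChem cytochrome P450 panel assay, CYP1A2 panel member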
T5 sequence (P05177 whole entry): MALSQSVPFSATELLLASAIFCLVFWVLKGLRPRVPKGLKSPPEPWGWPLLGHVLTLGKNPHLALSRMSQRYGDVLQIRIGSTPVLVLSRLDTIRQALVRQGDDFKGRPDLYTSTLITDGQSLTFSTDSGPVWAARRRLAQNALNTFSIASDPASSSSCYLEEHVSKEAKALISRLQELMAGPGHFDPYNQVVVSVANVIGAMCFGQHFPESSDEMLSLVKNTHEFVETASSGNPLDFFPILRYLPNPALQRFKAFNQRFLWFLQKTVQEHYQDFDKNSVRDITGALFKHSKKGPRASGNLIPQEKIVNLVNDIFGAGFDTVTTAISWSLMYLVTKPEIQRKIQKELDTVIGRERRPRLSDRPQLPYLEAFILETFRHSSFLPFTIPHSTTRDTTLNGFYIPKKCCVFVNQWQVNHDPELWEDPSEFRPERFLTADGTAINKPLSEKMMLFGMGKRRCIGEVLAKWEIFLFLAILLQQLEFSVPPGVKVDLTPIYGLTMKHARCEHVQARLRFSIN

Cytochrome P450 3A4 = Cytochrome P450 3A4 (Homo sapiens, UniProt P08684);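 note: CYP3A4 tested as one member of a cytochrome P450 panel screen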
HEK293 = assay: cells; settings: Homo sapiens
[14] = target: Nucleotide-binding oligomerization domain-containing protein 2 (Homo sapiens, UniProt Q9HC29); assay: PubChem AID 2334; format: functional
Tumor necrosis factor = Tumor necrosis factor (Homo sapiens, UniProt P01375); assay: TNFa-triggered NF-kB activation inhibitors, SAR follow-up, cell-based, revised (AID 2337); format: functional
[15] = target: Nucleotide-binding oligomerization domain-containing protein 1 (Homo sapiens, UniProt Q9Y239); assay: NOD1 signaling inhibitors, SAR follow-up, revised (AID 2333); format: functional
Salmon testes DNA = assay: DNA intercalators displacing acridine orange, dose response, artefact control for KSHV LANA DNA-binding inhibitor project, biochemical, fluorescence polarization, cherry-picked samples, set 2 (AID 504727); set-up: species or system Salmonidae
[16] = target: UDP-galactopyranose mutase (Mycobacterium tuberculosis, UniProt P9WIQ1); assay: Inhibitors of Mycobacterium tuberculosis UDP-galactopyranose mutase (UGM) enzyme Measured in Biochemical System Using Plate Reader - 2105-02_Inhibitor_Dose_CherryPick_Activity. [Related pubchem assays (depositor defined):AID504439]
ORF 73 = ORF 73 (Human herpesvirus 8, UniProt O40947); assay: inhibitors of C-LANA binding to LBS DNA, dose response, biochemical, fluorescence polarization, cherry-picked samples (AID 504725); set-up: species or system Human gammaherpesvirus 8;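 note: fluorescence polarization of a labeled DNA duplex reporting LANA DNA binding; potency is for inhibitors that block LANA binding to the DNA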
[17] = target: Voltage-dependent T-type calcium channel subunit alpha-1H (Homo sapiens, UniProt O95180); format: functional;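 note: channel activity triggered by adding a high calcium stimulation buffer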
[18] = target: Eukaryotic translation initiation factor 4E (Mus musculus, UniProt P63073); assay: eIF4E–eIF4G protein interaction inhibitors, dose response, biochemical, TR-FRET (AID 855); format: functional;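 note: potency for disrupting eIF4E binding to eIF4GI seen as loss of FRET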
[19] = target: T6, Sphingosine 1-phosphate receptor 4 (Homo sapiens, UniProt O95977); assay: Fluorescence dose response cell-based high throughput screening assay for agonists of the Sphingosine 1-Phosphate Receptor 4 (S1P4). [Related pubchem assays: 1509 (Primary screen.), 1523 (Confirmation screen in triplicates.)]; format: functional
T6 sequence (O95977 whole entry): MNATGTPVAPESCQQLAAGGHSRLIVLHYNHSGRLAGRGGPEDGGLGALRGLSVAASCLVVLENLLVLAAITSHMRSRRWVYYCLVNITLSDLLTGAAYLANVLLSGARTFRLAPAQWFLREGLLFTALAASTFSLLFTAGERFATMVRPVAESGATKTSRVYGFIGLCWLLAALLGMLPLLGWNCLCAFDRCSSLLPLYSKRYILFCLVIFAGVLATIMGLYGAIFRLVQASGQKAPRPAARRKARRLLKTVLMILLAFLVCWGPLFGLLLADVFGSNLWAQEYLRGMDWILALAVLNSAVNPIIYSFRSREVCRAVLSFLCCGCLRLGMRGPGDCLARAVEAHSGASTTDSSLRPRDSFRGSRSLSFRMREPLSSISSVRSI

[20] = target: Sphingosine 1-phosphate receptor 1 (Homo sapiens, UniProt P21453); assay: Fluorescence-based counterscreen assay for S1P4 agonists: Cell-based dose response high throughput screening assay to identify agonists of the Sphingosine 1-Phosphate Receptor 1 (S1P1). [Related pubchem assays (depositor defined):AID1509, AID1523, AID1801, AID463107, AID463118, AID463119, AID463122, AID463123, AID463129, AID463225, AID504400, AID504460]; format: functional
Sequence of Sphingosine 1-phosphate receptor 1 (P21453 whole entry): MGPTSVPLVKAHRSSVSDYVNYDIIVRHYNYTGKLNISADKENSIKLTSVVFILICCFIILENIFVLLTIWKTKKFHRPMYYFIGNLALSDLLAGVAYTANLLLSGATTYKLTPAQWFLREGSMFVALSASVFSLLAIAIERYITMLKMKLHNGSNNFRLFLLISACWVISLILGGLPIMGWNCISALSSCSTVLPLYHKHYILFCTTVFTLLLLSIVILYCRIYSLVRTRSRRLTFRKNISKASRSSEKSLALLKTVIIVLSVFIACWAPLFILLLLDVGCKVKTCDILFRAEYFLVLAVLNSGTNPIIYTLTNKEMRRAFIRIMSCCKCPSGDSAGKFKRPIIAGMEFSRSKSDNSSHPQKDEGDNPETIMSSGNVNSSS

T3 sequence (P41145 whole entry): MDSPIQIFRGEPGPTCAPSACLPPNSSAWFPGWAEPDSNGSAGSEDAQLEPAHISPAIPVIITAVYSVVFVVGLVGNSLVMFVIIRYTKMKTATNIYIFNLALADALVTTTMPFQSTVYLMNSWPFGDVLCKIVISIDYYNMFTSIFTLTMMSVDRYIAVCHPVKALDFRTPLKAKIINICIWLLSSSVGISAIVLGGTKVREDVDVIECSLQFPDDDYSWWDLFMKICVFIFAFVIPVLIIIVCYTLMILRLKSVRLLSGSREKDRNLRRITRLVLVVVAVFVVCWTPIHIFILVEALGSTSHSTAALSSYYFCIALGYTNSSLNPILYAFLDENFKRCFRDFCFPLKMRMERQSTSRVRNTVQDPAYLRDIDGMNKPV
T4 sequence (P41143 whole entry): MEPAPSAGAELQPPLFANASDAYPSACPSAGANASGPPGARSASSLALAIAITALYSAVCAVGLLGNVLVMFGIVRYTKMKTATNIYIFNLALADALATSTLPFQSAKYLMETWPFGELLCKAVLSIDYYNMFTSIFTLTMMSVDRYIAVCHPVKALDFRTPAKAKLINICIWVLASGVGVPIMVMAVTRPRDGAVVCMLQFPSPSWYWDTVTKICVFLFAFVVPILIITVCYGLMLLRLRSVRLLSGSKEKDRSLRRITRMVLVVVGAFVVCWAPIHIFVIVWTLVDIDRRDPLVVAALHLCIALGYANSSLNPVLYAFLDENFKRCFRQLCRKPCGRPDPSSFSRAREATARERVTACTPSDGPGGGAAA
Sequence of ATP-dependent molecular chaperone HSP82 (C4YTQ8 whole entry): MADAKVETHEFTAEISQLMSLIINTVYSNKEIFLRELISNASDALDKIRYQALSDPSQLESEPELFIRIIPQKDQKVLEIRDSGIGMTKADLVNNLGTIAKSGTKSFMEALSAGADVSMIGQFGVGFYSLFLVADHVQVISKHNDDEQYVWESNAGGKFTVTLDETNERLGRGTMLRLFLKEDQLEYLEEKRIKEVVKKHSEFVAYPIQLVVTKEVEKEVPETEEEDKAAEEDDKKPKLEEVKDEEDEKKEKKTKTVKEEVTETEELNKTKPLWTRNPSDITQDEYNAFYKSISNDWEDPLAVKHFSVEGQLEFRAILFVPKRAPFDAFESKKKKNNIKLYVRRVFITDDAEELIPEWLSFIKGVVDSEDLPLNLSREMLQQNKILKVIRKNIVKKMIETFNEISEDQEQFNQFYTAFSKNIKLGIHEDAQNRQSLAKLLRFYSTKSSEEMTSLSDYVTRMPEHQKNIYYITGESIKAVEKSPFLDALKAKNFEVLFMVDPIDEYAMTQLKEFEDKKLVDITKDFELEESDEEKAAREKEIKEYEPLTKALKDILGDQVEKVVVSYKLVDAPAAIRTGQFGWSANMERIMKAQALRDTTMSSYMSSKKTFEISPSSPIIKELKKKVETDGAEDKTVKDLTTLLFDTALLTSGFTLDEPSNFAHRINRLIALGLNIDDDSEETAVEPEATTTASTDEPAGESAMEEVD
Sequence of Beta-galactosidase (Q8VNN2 whole entry): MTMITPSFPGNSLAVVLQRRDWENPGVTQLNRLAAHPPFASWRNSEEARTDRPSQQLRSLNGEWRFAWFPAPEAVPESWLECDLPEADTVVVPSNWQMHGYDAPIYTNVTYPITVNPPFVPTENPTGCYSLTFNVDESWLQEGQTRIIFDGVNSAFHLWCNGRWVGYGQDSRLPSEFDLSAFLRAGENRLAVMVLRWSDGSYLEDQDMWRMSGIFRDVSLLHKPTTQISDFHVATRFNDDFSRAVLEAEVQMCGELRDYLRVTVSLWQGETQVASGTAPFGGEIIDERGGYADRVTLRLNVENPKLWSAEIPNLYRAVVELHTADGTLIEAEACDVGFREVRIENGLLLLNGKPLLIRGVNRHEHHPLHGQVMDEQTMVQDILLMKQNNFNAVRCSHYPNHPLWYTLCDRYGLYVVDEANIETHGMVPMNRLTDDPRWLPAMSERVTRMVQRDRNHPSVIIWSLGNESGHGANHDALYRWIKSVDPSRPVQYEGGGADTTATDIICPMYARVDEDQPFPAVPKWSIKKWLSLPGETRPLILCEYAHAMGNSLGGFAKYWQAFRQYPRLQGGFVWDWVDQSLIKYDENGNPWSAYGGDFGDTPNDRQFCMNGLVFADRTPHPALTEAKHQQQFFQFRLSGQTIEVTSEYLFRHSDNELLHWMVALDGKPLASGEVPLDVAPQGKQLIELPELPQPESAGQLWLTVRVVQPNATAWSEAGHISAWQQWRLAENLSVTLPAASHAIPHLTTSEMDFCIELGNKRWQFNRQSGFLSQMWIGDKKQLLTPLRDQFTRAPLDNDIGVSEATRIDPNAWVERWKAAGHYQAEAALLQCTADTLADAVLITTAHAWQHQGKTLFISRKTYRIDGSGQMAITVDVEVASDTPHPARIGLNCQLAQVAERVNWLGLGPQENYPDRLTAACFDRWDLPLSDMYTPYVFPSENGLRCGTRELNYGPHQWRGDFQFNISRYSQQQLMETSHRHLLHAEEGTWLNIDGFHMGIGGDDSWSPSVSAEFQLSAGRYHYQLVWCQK
Sequence of Nucleotide-binding oligomerization domain-containing protein 2 (Q9HC29 whole entry, the tested form may be a part): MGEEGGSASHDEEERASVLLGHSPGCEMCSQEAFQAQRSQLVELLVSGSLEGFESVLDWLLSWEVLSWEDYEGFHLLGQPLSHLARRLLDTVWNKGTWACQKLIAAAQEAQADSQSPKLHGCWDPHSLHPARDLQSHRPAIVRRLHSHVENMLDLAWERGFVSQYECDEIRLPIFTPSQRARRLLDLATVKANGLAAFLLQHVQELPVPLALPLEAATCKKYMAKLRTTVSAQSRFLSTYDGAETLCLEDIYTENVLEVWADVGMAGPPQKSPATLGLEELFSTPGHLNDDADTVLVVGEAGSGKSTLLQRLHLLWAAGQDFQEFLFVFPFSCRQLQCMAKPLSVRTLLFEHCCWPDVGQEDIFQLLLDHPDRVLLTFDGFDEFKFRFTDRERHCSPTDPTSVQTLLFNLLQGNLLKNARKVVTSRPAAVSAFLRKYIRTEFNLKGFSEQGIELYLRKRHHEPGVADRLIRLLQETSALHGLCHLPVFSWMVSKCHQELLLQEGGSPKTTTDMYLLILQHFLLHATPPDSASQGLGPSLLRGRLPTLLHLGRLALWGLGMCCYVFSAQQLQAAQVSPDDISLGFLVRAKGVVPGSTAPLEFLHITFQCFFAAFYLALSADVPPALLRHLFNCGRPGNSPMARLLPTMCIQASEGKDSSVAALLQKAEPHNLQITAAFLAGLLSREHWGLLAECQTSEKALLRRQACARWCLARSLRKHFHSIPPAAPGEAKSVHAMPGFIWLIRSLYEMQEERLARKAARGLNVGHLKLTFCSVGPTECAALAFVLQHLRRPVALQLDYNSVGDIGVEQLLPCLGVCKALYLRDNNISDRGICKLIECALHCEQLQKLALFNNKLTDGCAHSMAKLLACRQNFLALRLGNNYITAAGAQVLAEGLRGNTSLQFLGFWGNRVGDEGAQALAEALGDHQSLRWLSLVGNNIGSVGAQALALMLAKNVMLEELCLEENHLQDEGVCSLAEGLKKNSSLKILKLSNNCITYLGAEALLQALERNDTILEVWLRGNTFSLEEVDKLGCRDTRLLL
Sequence of Cytochrome P450 2D6 (P10635 whole entry): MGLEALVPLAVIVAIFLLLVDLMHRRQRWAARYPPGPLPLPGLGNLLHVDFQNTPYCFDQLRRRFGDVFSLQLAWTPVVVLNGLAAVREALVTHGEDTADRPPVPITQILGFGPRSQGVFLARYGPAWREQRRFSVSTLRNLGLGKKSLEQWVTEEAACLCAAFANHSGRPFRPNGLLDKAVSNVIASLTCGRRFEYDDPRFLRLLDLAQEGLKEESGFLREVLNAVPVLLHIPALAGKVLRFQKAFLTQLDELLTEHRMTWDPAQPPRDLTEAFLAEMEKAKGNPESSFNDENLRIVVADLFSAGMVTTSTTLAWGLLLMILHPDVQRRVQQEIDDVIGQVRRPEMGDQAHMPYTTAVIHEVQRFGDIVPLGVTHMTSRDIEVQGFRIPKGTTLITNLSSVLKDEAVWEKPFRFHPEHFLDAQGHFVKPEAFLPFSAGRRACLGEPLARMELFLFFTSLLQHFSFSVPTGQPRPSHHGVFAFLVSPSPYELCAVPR
Sequence of Cytochrome P450 2C9 (P11712 whole entry): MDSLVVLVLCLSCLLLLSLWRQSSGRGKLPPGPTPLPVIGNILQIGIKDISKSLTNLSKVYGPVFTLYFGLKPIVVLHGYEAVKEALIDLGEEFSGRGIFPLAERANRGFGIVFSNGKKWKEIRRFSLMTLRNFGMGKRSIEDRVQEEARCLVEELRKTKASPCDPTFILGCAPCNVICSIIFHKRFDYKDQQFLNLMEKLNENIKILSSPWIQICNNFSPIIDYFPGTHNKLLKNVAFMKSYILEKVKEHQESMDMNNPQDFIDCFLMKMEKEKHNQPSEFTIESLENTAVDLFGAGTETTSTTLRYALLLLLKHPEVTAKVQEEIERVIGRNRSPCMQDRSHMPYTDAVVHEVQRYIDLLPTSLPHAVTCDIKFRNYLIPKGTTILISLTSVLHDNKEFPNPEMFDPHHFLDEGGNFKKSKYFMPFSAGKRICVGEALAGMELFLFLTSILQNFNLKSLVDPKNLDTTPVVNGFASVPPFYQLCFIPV

## O=c1c2cc(Br)ccc2nc(-c2cccc(C(F)(F)F)c2)n1O
[1]
  EC50: 15.5 µM (inconclusive)
[2]
  EC50: 28.1 µM (active)
[3]
  CC50: 13.9 µM (active)
[4]
  EC50: 5.96 µM (active)
cells
  IC50: 8.38 µM (active)
[5]
  EC50: 4.04 µM (active)
[6]
  CC50: 15.8 µM (active)
[7]
  CC50: 11.6 µM (active)
[8]
  EC50: 17.3 µM (active)
[9]
  EC50: 0.451 µM (active)

## CCc1nc2sc3c(Cl)ncnc3c2c2c1CCCC2
[10]
  IC50: 5.42 µM (active)
[11]
  EC50: > 32 µM (inactive)
[12]
  IC50: > 32 µM (inactive)
[13]
  IC50: > 32 µM
Beta-galactosidase
  EC50: > 31.5 µM (inactive)
Mu-type opioid receptor
  EC50: > 32 µM (inactive)

## O=C(O[C@H]1C[N@+]2(Br)CC[C@@H]1CC2)C(O)(c1ccccc1)c1ccccc1
Cytochrome P450 2C19
  AC50: inactive
Cytochrome P450 2D6
  AC50: inactive
Cytochrome P450 2C9
  AC50: inactive
Cytochrome P450 1A2
  AC50: inactive
Cytochrome P450 3A4
  AC50: inactive

## O=C(Nc1nc2ccccc2n1Cc1ccccc1Cl)c1cccs1
HEK293
  IC50: > 20 µM (inactive)
[14]
  IC50: > 20 µM (inactive)
Tumor necrosis factor
  IC50: > 20 µM (inactive)
[15]
  IC50: > 20 µM (inactive)

## Cn1cc(/C=C2\C(=O)NC(=O)N(c3ccccc3)C2=O)c2ccccc21
Salmon testes DNA
  AC50: 92.2 µM (active)
[16]
  AC50: 71.9 µM (active)
ORF 73
  AC50: 41.3 µM (active)

## CCOc1ccccc1OCCCCCc1c(C)n[nH]c1C
[17]
  EC50: 8.55 µM (active)
[18]
  IC50: > 64 µM (inactive)
[19]
  EC50: > 49.8 µM (not active)
[20]
  EC50: > 49.8 µM (inactive)
